Reference: patent US20240325548A1, “DYNAMIC BIOACTIVE SCAFFOLDS AND THERAPEUTIC USES THEREOF AFTER CNS INJURY” (Northwestern University, priority 2021, published 2024)

Key:
β1-INTEGRIN (ITGB1) = target: T1, β1-INTEGRIN (ITGB1) (Homo sapiens, UniProt P05556); test: ITGB1 activation and intracellular signaling in hNPCs treated with IKVAV PAs (confocal microscopy, WB); assay type: cell-based; settings: for activation of ITGB1 and downstream pathway (ILK, p-FAK/FAK) with Ca2+ added: PA mixed with 5 mM CaCl2; for active ITGB1 and downstream effectors ILK and p-FAK: relative to other IKVAV PAs, IKVAV peptide, laminin or ornithine
T1 construct: endogenous in cells; host or cells: hNPCs differentiated from human embryonic stem cells HUES 64
From the text: Neural progenitor cells (NPCs) were differentiated from human embryonic stem cells HUES 64 (Harvard University) (see FIG. 2C). In short, 70% confluent stem cell cultures grown in Matrigel (Thermo Fisher) coated plates with mTESR medium (STEMCELL Technologies), were switched to N2B27 medium (50% DMEM: F12, 50% Neurobasal, supplemented with NEAA, Glutamax, N2 and B27; Gibco) containing dual SMAD inhibitors (SB431542, DNSK International and LDN-193189, Tocris) for 12 days to induce the generation of neural progenitors. Neuralization was enhanced by supplementing medium with laminin from day 5 to 12. Next, neural rosettes were dissociated with neural rosette selection reagent (STEMCELL Technologies) to obtain NPCs, which are expanded in N2B27 (Gibco) medium supplemented with bFGF (Millipore). For experimentation in the different PA platforms, NPCs were dissociated with Accutase (Innovative Cell technology), and cultured in the distinct platforms with DMEM: F12+N2+B27 medium with hyclone penicillin-streptomycin (GE Healthcare) and ascorbic acid (0.2 μg/mL; Sigma-Aldrich).
For IKVAV PA treatments, hNPCs were cultured on ornithine coatings (German Glass, Chemglass Life Science) in 6 well and 24 well plates at a density of 500,000 cells/well and 80,000 cells/well respectively. hNPCs were treated with […] of IKVAV PAs ([PA]=6 mM, [KCl]=3 mM, [NaCl]=150 mM) or recombinant laminin protein (10 mg/mL) in solution. IKVAV PA2 and IKVAV PA5 were also mixed with 5 mM CaCl2) at a ratio PA:CaCl2) 6:1 to treat hNPCs. For 2D experiments, hNPCs were cultured on the different IKVAV PAs or laminin coatings in 6 well and 24 well plates at densities mentioned above. For co-assembled experiments, hNPCs were cultured on the different co-assembled PA coatings in 6 well and 24 well plates at a density of 400,000 cells/well and 50,000 cells/well respectively.
hNPCs were fed 4 times a week with DMEM: F12+N2^+B27 medium with hyclone penicillin-streptomycin and ascorbic acid. After 24 h, 72 h 1- or 2-weeks in vitro, cell lysates were harvested or fixed for WB or ICC, respectively. Three replicates per condition and at least three independent experiments were carried out for all conditions investigated.
For immunofluorescence, fixed primary cultures or free-floating tissue sections (40 m Thick) were incubated in blocking buffer containing 0.02% Triton-X (Sigma-Aldrich), 1% NHS (Gibco) and PBS 1× (Gibco). Samples were incubated with primary antibodies over night at 4° C. Alexa-488, Alexa-555 and/or Alexa-647 (1:500, Thermofisher) were used as secondary antibodies. DAPI (1:500, Thermofisher) was used to stain nuclei. Finally, the samples were mounted on coverslips with Immu-Mount (Fisher Scientific) solution for imaging.
RIPA buffer (Thermofisher) with a cocktail of Halt Protease and Phosphatase Inhibitors (Thermofisher) was used to extract protein from in vitro and in vivo samples. For in vivo studies, spinal cord tissue was then sonicated using a horn sonicator (Branson) to break up the tissue. A Pierce™ BCA Protein Assay Kit (Thermofisher) was used to determine protein content for all samples used. Protein extracts obtained from cell cultures or tissue were separated using an SDS-polyacrylamide gel and electro-transferred to a nitrocellulose membrane (Bio-Rad). Membranes were blocked for 30 minutes to 1 hour using a 5% milk solution (Bio-Rad) and incubated over night with primary antibodies. Corresponding secondary HRP-conjugated antibodies (1:1000, ThermoFisher) were used for 1 h at room temperature. Radiance Bioluminescent ECL substrate (Azure Biosystems) was used to detect protein signal. The membranes were imaged using the Azure Biosystems imager and densitometry analysis were performed using ImageJ software.

[1] = T2-NMR spin-spin relaxation rate of PA assemblies; assay type: physicochemical; settings: for relaxation rate 1H-R2 of methylene protons on ε carbon of K residue in IKVAV: T2-NMR, IKVAV PA library
Experimental: NMR spectra were acquired at 600 MHz on a Tecmag NMR spectrometer using a Doty diffusion probe with a sweep width of 6 kHz and 16k data points or at 600 MHz on a Brucker Neo system with QCI-F cryoprobe.
NMR spectra for IKVAV PAs were recorded at 25° C. using TFA-d, H2O/D2O in 9/1 ratio (D2O contains 0.05 wt. % 3-(trimethylsilyl) propionic-2,2,3,3-d4 acid, sodium salt) as solvents. Chemical shifts are reported in part per million (ppm). Structural assignment was performed using ^1H,^1H-gCOSY, ^1H,^13C-gHSCQAD, TOCSY and NOESY. Multiplicities are quoted as singlet (s), doublet (d), multiplets (m), doublet of doublets (dd), doublet of doublet of doublets (ddd), triplet (t), quartet (q). The […] and typical spectra required 32 scans. Additional scans (512) were required for accurate estimation of the aromatic signal intensity since the epitope containing aromatic protons was present at only 10 mol %.
The spin-spin relaxation rates were measured using the Carr-Purcell-Gill-Meiboom pulse sequence with a delay time of 0.2 ms in a variable loop. The peak intensity data was fit to and exponential in the form:
where τ is the length of the delay time, R2 is the spin-spin relaxation rate and b are the baseline.

[2] = T2 relaxation of K residue of IKVAV PAs, no Ca2+

T1 sequence (P05556 21-798): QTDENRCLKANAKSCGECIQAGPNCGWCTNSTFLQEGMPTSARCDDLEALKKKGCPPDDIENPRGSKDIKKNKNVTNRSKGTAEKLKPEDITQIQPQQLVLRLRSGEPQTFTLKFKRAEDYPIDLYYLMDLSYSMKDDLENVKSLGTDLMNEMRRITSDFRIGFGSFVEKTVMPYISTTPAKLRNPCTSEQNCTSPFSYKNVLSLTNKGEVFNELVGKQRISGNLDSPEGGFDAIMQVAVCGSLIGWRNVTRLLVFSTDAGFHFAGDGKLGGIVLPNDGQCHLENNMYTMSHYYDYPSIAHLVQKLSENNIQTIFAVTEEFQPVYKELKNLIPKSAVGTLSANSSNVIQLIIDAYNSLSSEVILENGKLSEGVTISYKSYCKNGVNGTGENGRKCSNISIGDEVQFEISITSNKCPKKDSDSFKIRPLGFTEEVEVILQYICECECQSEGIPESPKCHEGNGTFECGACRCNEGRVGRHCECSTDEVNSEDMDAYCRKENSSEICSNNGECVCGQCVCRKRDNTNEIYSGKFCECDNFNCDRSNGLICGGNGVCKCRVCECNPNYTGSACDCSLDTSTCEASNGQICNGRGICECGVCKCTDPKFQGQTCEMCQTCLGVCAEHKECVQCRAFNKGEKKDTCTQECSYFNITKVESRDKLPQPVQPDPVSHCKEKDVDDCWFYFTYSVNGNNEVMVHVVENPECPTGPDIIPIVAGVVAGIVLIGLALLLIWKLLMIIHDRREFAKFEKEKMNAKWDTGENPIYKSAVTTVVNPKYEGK

Substance | activation of ITGB1 and downstream pathway (ILK, p-FAK/FAK) with Ca2+ added (β1-INTEGRIN (ITGB1)) | active ITGB1 and downstream effectors ILK and p-FAK (β1-INTEGRIN (ITGB1)) | relaxation rate 1H-R2 of methylene protons on ε carbon of K residue in IKVAV [1] [s⁻¹] | R2 [1, 2] [s⁻¹] | R2 ([1]; T2 relaxation of K residue, +Ca2+) [s⁻¹] | in vitro bioactivity (summary) (β1-INTEGRIN (ITGB1))
C16-A2G2E4GIKVAV [IKVAV PA2] | decreased | substantially higher | 2.7 ± 0.1 | 2.7 ± 0.1 | 8.6 ± 0.5 | 
C16-G4E4GIKVAV [IKVAV PA5] | decreased | substantially higher | 2.6 ± 0.003 | 2.6 ± 0.03 |  | 
C16-V2A2E4GIKVAV [IKVAV PA1] |  |  |  | 11.2 ± 2.9 |  | low level of in vitro bioactivity
C16-VAG2E4GIKVAV [IKVAV PA4] |  | intermediate level of activation |  | 5.6 ± 0.4 |  | low level of in vitro bioactivity
